Consider two compounds from patent US20260315452A1, “PROTEASE INHIBITORS AND USES THEREOF” (priority 2023, published 2026).

A value given as a limit tells only on which side of the number the result lay.

The target in data set [1] is T1, SARS-CoV-2 3CLpro (Severe acute respiratory syndrome coronavirus 2, UniProt P0DTD1). As to the kind of experiment: biochemical. To be noted: inhibition of SARS-CoV-2 3CLpro; 15 nM 3CLpro, 25 μM fluorogenic substrate, 37° C.; read-out: Inhibitory Activity (IC50).
For data set [2], the target named is T1, SARS-CoV-2 3CLpro. As to the kind of experiment: Co-crystal structure with SARS-CoV-2 3CLpro. The format is binding. Particulars: co-crystal with SARS-CoV-2 3CLpro.
In another data set the test system is SARS-CoV-2. In words: Anti-SARS-CoV-2 activity in A549 cells expressing the human ACE2 receptor (inhibition of SARS-CoV-2 replication). Particulars: for EC50: Severe acute respiratory syndrome coronavirus 2, A549-ACE2, 24 h, read-out: Antiviral Activity (EC50). The format is cell-based.
For data set [3], the target named is T1, SARS-CoV-2 3CLpro. Type of data set: binding. To be noted: ITC, 25° C., pH 7.4; versus Ref-2 (compound P2).
A short description of data set [4]: Plasma protein binding (PPB) by equilibrium dialysis. The format is in vitro ADME. To be noted: human and mouse plasma, 4 hours, 37° C., versus Ref-2. As to the method: The binding of compounds Ref-2, 86, 97, 98 and 170 to human and mouse plasma were measured using equilibrium dialysis. A loading matrix was prepared by diluting of a 400 μM stock of each of the compounds in DMSO by the plasma matrix. To prepare the time zero (To) samples to be used for recovery determination, 50 μL of the loading matrix were transferred in triplicate to the sample collection plate, immediately matched with opposite blank buffer to obtain a final volume of 100 μL of 1:1 matrix/dialysis buffer (v/v) in each well, followed by the addition of 500 μL of stop solution (200 ng/mL of tolbutamide, 200 ng/mL of labetalol, and 50 ng/mL of metformin in acetonitrile) and then stored at 2-8° C. pending further processes along with other post-dialysis samples. To load the dialysis device, 150 μL of the loading matrix and 150 μL of the dialysis buffer were transferred to the donor side and the receiver side of each well, respectively. The dialysis plate was placed in a humidified incubator at 37° C. with 5% CO2 on a shaking platform that rotated slowly (about 100 rpm) for 4 hours, then 50 μL of samples were taken from both the buffer side and the matrix side, and transferred into new 96-well plates. Each sample was mixed with an equal volume of opposite blank buffer (or matrix) to reach a final volume of 100 μL, followed by the addition of 500 µL of stop solution. The mixture was vortexed and centrifuged at 4000 rpm for about 20 minutes, then […] of the supernatant of each sample was removed for LC-MS/MS analysis. The single blank samples were prepared by transferring 50 μL of blank matrix to a 96 well plate and adding 50 μL of blank PBS buffer to each well. The blank plasma must match the species of plasma used in the plasma side of the well. Then the matrix-matched samples were further processed by adding 500 μL of stop solution, following the same sample processing method as the dialysis samples. The % Unbound, % Bound and % Recovery were calculated using the following equations: […]
in which F is the analyte concentration or peak area ratio of analyte/internal standard on the buffer (receiver) side of the membrane, T is the analyte concentration or peak area ratio of analyte/internal standard on the matrix (donor) side of the membrane, and T0 is the analyte concentration or the peak area ratio of analyte/internal standard in the loading matrix sample at time zero.
For orientation: Equilibrium dialysis compares concentrations on both sides of a semipermeable membrane.

Data set [5] relates to CYP1A2, CYP2C9, CYP2C19, CYP2D6 and CYP3A4. As to the kind of experiment: CYP inhibition evaluation in human liver microsomes. The format is in vitro ADME. Particulars: CYP1A2, 2C9, 2C19, 2D6, 3A4, up to 50 μM. The method, then:
20 μL of the substrate solutions of CYP1A2, CYP2C9, CYP2C19, CYP2D6 and CYP3A4 were each mixed with […] of the test compounds (final concentrations: 50 μM, 15 μM, 5 μM, 1.5 μM, 0.5 μM, 0.15 μM, 0.05 μM, 0 μM), followed by the addition of 158 μL of the HLM (Human liver microsome) working solution. Each of the mixtures was incubated at 37° C. for 10 minutes, and then mixed with 20 μL of NADPH cofactor, followed by incubation at 37° C. for additional 10 minutes. The reactions were terminated by adding 400 μL cold stop solution (200 ng/mL Tolbutamide and Labetalol in ACN). The samples are centrifuged at 4000 rpm for 20 minutes to precipitate protein. Next, 200 μL of the supernatant of each sample was transferred to 100 μL HPLC water and shaken for 10 minutes, and then analyzed by LC/MS/MS.
A general note: Microsomes from liver hold many membrane-bound enzymes, among them those of drug oxidation.

The test system of the next data set is Omicron SARS-CoV-2. Particulars: FIG. 8, with Ref-2.

By IC50 is commonly meant the concentration that inhibits the measured activity by half. A word on the EC50: it is the concentration giving half of the maximal effect. Regarding `CNC(=O)c1cc(Br)cc([N+](=O)[O-])c1N[C@H]1CN(C(=O)c2cncc3ccccc23)CCC1(F)F` [Compound 19, (S)-5-bromo-2-((4,4-difluoro-1-(isoquinoline-4-carbonyl)piperidin-3-yl)amino)-N-methyl-3-nitrobenzamide], the half-inhibitory concentration (IC50) at SARS-CoV-2 3CLpro [1] is less than 0.1 µM. For the same compound, on SARS-CoV-2 3CLpro [2], the “binding site/mode in crystal structure” value is reported as “bound into the catalytic pocket of 3CLpro”. For the same compound, the “antiviral potency in A549 cells in comparison with compound Ref-2” value in the data set with SARS-CoV-2 (A549 cells, versus Ref-2 (FIG. 7)) is reported as “better antiviral potency”. The concentration giving a half-maximal response (EC50) in the data set with SARS-CoV-2 is less than 0.1 µM. For the same compound, on SARS-CoV-2 3CLpro [3], the “binding affinity (dissociation constant, Kd) in comparison with compound Ref-2” value is recorded as “higher binding affinity”.
For the compound `CNC(=O)c1cc(Cl)cc([N+](=O)[O-])c1N[C@H]1CN(C(=O)c2cncc3cccnc23)CCC1(F)F` [Compound 98, (S)-5-chloro-2-((4,4-difluoro-1-(1,6-naphthyridine-8-carbonyl)piperidin-3-yl)amino)-N-methyl-3-nitrobenzamide], the “free PPB ratio in comparison with compound Ref-2” value in data set [4] is “better free PPB ratios”. Also, the IC50 on SARS-CoV-2 3CLpro [1] was less than 0.1 µM. In addition, the “effect on different CYP isoforms” value in data set [5] is given as “little effect on different CYP isoforms”. Besides, the “binding site/mode in crystal structure” value at SARS-CoV-2 3CLpro [2] is “bind to 3CLpro similar to that of Compound 19”. For the same compound, the EC50 in the data set with SARS-CoV-2 was less than 0.1 µM. Moreover, the “activity against Omicron SARS-CoV-2 in Caco-2 cells” value in the data set on Omicron SARS-CoV-2 is recorded as “stronger activity against Omicron SARS-CoV-2”.
